Experimental data: the supplement of paper PMC10307832

Key:
Test in all cases: relative viability (nuclei count vs DMSO), 5 days (fraction); higher = more cells survive
OSI-027 + Lapatinib = compound: COc1cccc2cc(-c3nc([C@H]4CC[C@H](C(=O)O)CC4)n4ncnc(N)c34)[nH]c12 [OSI-027] + CS(=O)(=O)CCNCc1ccc(-c2ccc3ncnc(Nc4ccc(OCc5cccc(F)c5)c(Cl)c4)c3c2)o1 [Lapatinib] (partner 2 µM)
Outline: (§1)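 Lung cancer cell lines were pin-tool dosed in 1536-well plates on the day after seeding, with either a lone drug or a fixed anchor-drug dose plus five library-drug doses (not always all listed) in √10 steps. Nuclei were counted on 4× images after 5 days. Relative viability is the ratio of treated-well to vehicle-well nuclei counts, with each value a median of duplicate plates.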

Vemurafenib + Vorinostat = compound: CCCS(=O)(=O)Nc1ccc(F)c(C(=O)c2c[nH]c3ncc(-c4ccc(Cl)cc4)cc23)c1F [Vemurafenib] + O=C(CCCCCCC(=O)Nc1ccccc1)NO [Vorinostat] (partner 1 µM)
Outline: as §1

Alpelisib + Tozasertib = compound: Cc1nc(NC(=O)N2CCC[C@H]2C(N)=O)sc1-c1ccnc(C(C)(C)C(F)(F)F)c1 [Alpelisib] + Cc1cc(Nc2cc(N3CCN(C)CC3)nc(Sc3ccc(NC(=O)C4CC4)cc3)n2)n[nH]1 [Tozasertib] (partner 0.1 µM)
Outline: as §1

Vemurafenib + Bortezomib = compound: CCCS(=O)(=O)Nc1ccc(F)c(C(=O)c2c[nH]c3ncc(-c4ccc(Cl)cc4)cc23)c1F [Vemurafenib] + CC(C)C[C@H](NC(=O)[C@H](Cc1ccccc1)NC(=O)c1cnccn1)B(O)O [Bortezomib] (partner 0.002 µM)
Outline: as §1

NCI-H1666
relative viability (OSI-027 + Lapatinib; first compound 0.01 µM): 0.521 | relative viability (OSI-027 + Lapatinib; first compound 0.03162 µM): 0.709 | relative viability (OSI-027 + Lapatinib; first compound 0.1 µM): 0.554 | relative viability (OSI-027 + Lapatinib; first compound 0.3162 µM): 0.33 | relative viability (OSI-027 + Lapatinib; first compound 1 µM): 0.27 | relative viability (Vemurafenib + Vorinostat; first compound 0.03162 µM): 0.972 | relative viability (Vemurafenib + Vorinostat; first compound 0.1 µM): 1.05 | relative viability (Vemurafenib + Vorinostat; first compound 0.3162 µM): 1.08 | relative viability (Vemurafenib + Vorinostat; first compound 1 µM): 1.01 | relative viability (Alpelisib + Tozasertib; first compound 0.04 µM): 0.668 | relative viability (Alpelisib + Tozasertib; first compound 0.1265 µM): 0.63 | relative viability (Alpelisib + Tozasertib; first compound 0.4 µM): 0.636 | relative viability (Alpelisib + Tozasertib; first compound 1.265 µM): 0.519 | relative viability (Alpelisib + Tozasertib; first compound 4 µM): 0.528 | relative viability (Vemurafenib + Bortezomib; first compound 0.03162 µM): 0.839 | relative viability (Vemurafenib + Bortezomib; first compound 0.3162 µM): 0.98 | relative viability (Vemurafenib + Bortezomib; first compound 1 µM): 0.759

NCI-H2009
relative viability (OSI-027 + Lapatinib; first compound 0.01 µM): 0.97 | relative viability (OSI-027 + Lapatinib; first compound 0.03162 µM): 0.963 | relative viability (OSI-027 + Lapatinib; first compound 0.1 µM): 0.848 | relative viability (OSI-027 + Lapatinib; first compound 0.3162 µM): 0.839 | relative viability (OSI-027 + Lapatinib; first compound 1 µM): 0.546 | relative viability (Vemurafenib + Vorinostat; first compound 0.03162 µM): 0.813 | relative viability (Vemurafenib + Vorinostat; first compound 0.1 µM): 0.731 | relative viability (Vemurafenib + Vorinostat; first compound 0.3162 µM): 0.715 | relative viability (Vemurafenib + Vorinostat; first compound 1 µM): 0.665 | relative viability (Alpelisib + Tozasertib; first compound 0.04 µM): 0.729 | relative viability (Alpelisib + Tozasertib; first compound 0.1265 µM): 0.708 | relative viability (Alpelisib + Tozasertib; first compound 0.4 µM): 0.768 | relative viability (Alpelisib + Tozasertib; first compound 1.265 µM): 0.696 | relative viability (Alpelisib + Tozasertib; first compound 4 µM): 0.752 | relative viability (Vemurafenib + Bortezomib; first compound 0.03162 µM): 0.944 | relative viability (Vemurafenib + Bortezomib; first compound 0.1 µM): 0.922 | relative viability (Vemurafenib + Bortezomib; first compound 0.3162 µM): 0.583 | relative viability (Vemurafenib + Bortezomib; first compound 1 µM): 0.778

NCI-H2228
relative viability (OSI-027 + Lapatinib; first compound 0.01 µM): 1.05 | relative viability (OSI-027 + Lapatinib; first compound 0.03162 µM): 1.21 | relative viability (OSI-027 + Lapatinib; first compound 0.1 µM): 0.958 | relative viability (OSI-027 + Lapatinib; first compound 1 µM): 0.539 | relative viability (Vemurafenib + Vorinostat; first compound 0.03162 µM): 0.457 | relative viability (Vemurafenib + Vorinostat; first compound 0.1 µM): 0.536 | relative viability (Vemurafenib + Vorinostat; first compound 0.3162 µM): 0.589 | relative viability (Vemurafenib + Vorinostat; first compound 1 µM): 0.595 | relative viability (Alpelisib + Tozasertib; first compound 0.04 µM): 0.224 | relative viability (Alpelisib + Tozasertib; first compound 0.1265 µM): 0.173 | relative viability (Alpelisib + Tozasertib; first compound 0.4 µM): 0.231 | relative viability (Alpelisib + Tozasertib; first compound 1.265 µM): 0.204 | relative viability (Alpelisib + Tozasertib; first compound 4 µM): 0.139 | relative viability (Vemurafenib + Bortezomib; first compound 0.03162 µM): 1.03 | relative viability (Vemurafenib + Bortezomib; first compound 0.1 µM): 1 | relative viability (Vemurafenib + Bortezomib; first compound 0.3162 µM): 1.24 | relative viability (Vemurafenib + Bortezomib; first compound 1 µM): 1.15

LCLC-97TM1
relative viability (OSI-027 + Lapatinib; first compound 0.01 µM): 1.31 | relative viability (OSI-027 + Lapatinib; first compound 0.03162 µM): 1.18 | relative viability (OSI-027 + Lapatinib; first compound 0.1 µM): 0.598 | relative viability (OSI-027 + Lapatinib; first compound 0.3162 µM): 0.376 | relative viability (OSI-027 + Lapatinib; first compound 1 µM): 0.222 | relative viability (Vemurafenib + Vorinostat; first compound 0.1 µM): 0.74 | relative viability (Vemurafenib + Vorinostat; first compound 0.3162 µM): 0.777 | relative viability (Vemurafenib + Vorinostat; first compound 1 µM): 0.42 | relative viability (Alpelisib + Tozasertib; first compound 0.04 µM): 0.206 | relative viability (Alpelisib + Tozasertib; first compound 0.1265 µM): 0.176 | relative viability (Alpelisib + Tozasertib; first compound 0.4 µM): 0.178 | relative viability (Alpelisib + Tozasertib; first compound 1.265 µM): 0.146 | relative viability (Alpelisib + Tozasertib; first compound 4 µM): 0.117 | relative viability (Vemurafenib + Bortezomib; first compound 0.03162 µM): 0.495 | relative viability (Vemurafenib + Bortezomib; first compound 0.1 µM): 0.587 | relative viability (Vemurafenib + Bortezomib; first compound 0.3162 µM): 0.528 | relative viability (Vemurafenib + Bortezomib; first compound 1 µM): 0.742

NCI-H596
relative viability (OSI-027 + Lapatinib; first compound 0.01 µM): 1.05 | relative viability (OSI-027 + Lapatinib; first compound 0.03162 µM): 1.19 | relative viability (OSI-027 + Lapatinib; first compound 0.1 µM): 0.934 | relative viability (OSI-027 + Lapatinib; first compound 0.3162 µM): 0.742 | relative viability (OSI-027 + Lapatinib; first compound 1 µM): 0.832 | relative viability (Vemurafenib + Vorinostat; first compound 0.03162 µM): 0.587 | relative viability (Vemurafenib + Vorinostat; first compound 0.1 µM): 0.742 | relative viability (Vemurafenib + Vorinostat; first compound 0.3162 µM): 0.465 | relative viability (Vemurafenib + Vorinostat; first compound 1 µM): 0.497 | relative viability (Alpelisib + Tozasertib; first compound 0.04 µM): 0.859 | relative viability (Alpelisib + Tozasertib; first compound 0.1265 µM): 0.893 | relative viability (Alpelisib + Tozasertib; first compound 0.4 µM): 0.86 | relative viability (Alpelisib + Tozasertib; first compound 1.265 µM): 0.56 | relative viability (Alpelisib + Tozasertib; first compound 4 µM): 0.374 | relative viability (Vemurafenib + Bortezomib; first compound 0.03162 µM): 1.05 | relative viability (Vemurafenib + Bortezomib; first compound 0.1 µM): 0.896 | relative viability (Vemurafenib + Bortezomib; first compound 0.3162 µM): 0.802 | relative viability (Vemurafenib + Bortezomib; first compound 1 µM): 1.05

BEN
relative viability (OSI-027 + Lapatinib; first compound 0.01 µM): 0.626 | relative viability (OSI-027 + Lapatinib; first compound 0.03162 µM): 0.529 | relative viability (OSI-027 + Lapatinib; first compound 0.1 µM): 0.419 | relative viability (OSI-027 + Lapatinib; first compound 0.3162 µM): 0.355 | relative viability (OSI-027 + Lapatinib; first compound 1 µM): 0.281 | relative viability (Vemurafenib + Vorinostat; first compound 0.03162 µM): 0.494 | relative viability (Vemurafenib + Vorinostat; first compound 0.1 µM): 0.592 | relative viability (Vemurafenib + Vorinostat; first compound 0.3162 µM): 0.402 | relative viability (Vemurafenib + Vorinostat; first compound 1 µM): 0.503 | relative viability (Alpelisib + Tozasertib; first compound 0.04 µM): 0.552 | relative viability (Alpelisib + Tozasertib; first compound 0.1265 µM): 0.443 | relative viability (Alpelisib + Tozasertib; first compound 0.4 µM): 0.571 | relative viability (Alpelisib + Tozasertib; first compound 1.265 µM): 0.521 | relative viability (Alpelisib + Tozasertib; first compound 4 µM): 0.484 | relative viability (Vemurafenib + Bortezomib; first compound 0.03162 µM): 0.768 | relative viability (Vemurafenib + Bortezomib; first compound 0.1 µM): 0.933 | relative viability (Vemurafenib + Bortezomib; first compound 0.3162 µM): 0.351 | relative viability (Vemurafenib + Bortezomib; first compound 1 µM): 0.554

LU99A
relative viability (OSI-027 + Lapatinib; first compound 0.01 µM): 0.834 | relative viability (OSI-027 + Lapatinib; first compound 0.03162 µM): 0.921 | relative viability (OSI-027 + Lapatinib; first compound 0.1 µM): 0.789 | relative viability (OSI-027 + Lapatinib; first compound 0.3162 µM): 0.309 | relative viability (OSI-027 + Lapatinib; first compound 1 µM): 0.218 | relative viability (Vemurafenib + Vorinostat; first compound 0.03162 µM): 0.513 | relative viability (Vemurafenib + Vorinostat; first compound 0.1 µM): 0.578 | relative viability (Vemurafenib + Vorinostat; first compound 1 µM): 0.466 | relative viability (Alpelisib + Tozasertib; first compound 0.04 µM): 0.283 | relative viability (Alpelisib + Tozasertib; first compound 0.1265 µM): 0.26 | relative viability (Alpelisib + Tozasertib; first compound 0.4 µM): 0.308 | relative viability (Alpelisib + Tozasertib; first compound 1.265 µM): 0.259 | relative viability (Alpelisib + Tozasertib; first compound 4 µM): 0.23 | relative viability (Vemurafenib + Bortezomib; first compound 0.03162 µM): 1.02 | relative viability (Vemurafenib + Bortezomib; first compound 0.1 µM): 1.07 | relative viability (Vemurafenib + Bortezomib; first compound 0.3162 µM): 1.05 | relative viability (Vemurafenib + Bortezomib; first compound 1 µM): 1.04

RERF-LC-KJ
relative viability (OSI-027 + Lapatinib; first compound 0.01 µM): 0.778 | relative viability (OSI-027 + Lapatinib; first compound 0.03162 µM): 0.843 | relative viability (OSI-027 + Lapatinib; first compound 0.1 µM): 0.78 | relative viability (OSI-027 + Lapatinib; first compound 0.3162 µM): 0.589 | relative viability (OSI-027 + Lapatinib; first compound 1 µM): 0.376 | relative viability (Vemurafenib + Vorinostat; first compound 0.03162 µM): 0.616 | relative viability (Vemurafenib + Vorinostat; first compound 0.1 µM): 0.659 | relative viability (Vemurafenib + Vorinostat; first compound 0.3162 µM): 0.625 | relative viability (Vemurafenib + Vorinostat; first compound 1 µM): 0.709 | relative viability (Alpelisib + Tozasertib; first compound 0.04 µM): 0.466 | relative viability (Alpelisib + Tozasertib; first compound 0.1265 µM): 0.455 | relative viability (Alpelisib + Tozasertib; first compound 0.4 µM): 0.572 | relative viability (Alpelisib + Tozasertib; first compound 1.265 µM): 0.363 | relative viability (Alpelisib + Tozasertib; first compound 4 µM): 0.349 | relative viability (Vemurafenib + Bortezomib; first compound 0.03162 µM): 1.04 | relative viability (Vemurafenib + Bortezomib; first compound 0.1 µM): 1.06 | relative viability (Vemurafenib + Bortezomib; first compound 0.3162 µM): 1.06 | relative viability (Vemurafenib + Bortezomib; first compound 1 µM): 1.19

HARA
relative viability (OSI-027 + Lapatinib; first compound 0.01 µM): 0.741 | relative viability (OSI-027 + Lapatinib; first compound 0.03162 µM): 0.577 | relative viability (OSI-027 + Lapatinib; first compound 0.1 µM): 0.549 | relative viability (OSI-027 + Lapatinib; first compound 0.3162 µM): 0.418 | relative viability (OSI-027 + Lapatinib; first compound 1 µM): 0.405 | relative viability (Vemurafenib + Vorinostat; first compound 0.03162 µM): 0.424 | relative viability (Vemurafenib + Vorinostat; first compound 0.1 µM): 0.517 | relative viability (Vemurafenib + Vorinostat; first compound 0.3162 µM): 0.399 | relative viability (Vemurafenib + Vorinostat; first compound 1 µM): 0.54 | relative viability (Alpelisib + Tozasertib; first compound 0.04 µM): 0.109 | relative viability (Alpelisib + Tozasertib; first compound 0.1265 µM): 0.074 | relative viability (Alpelisib + Tozasertib; first compound 0.4 µM): 0.107 | relative viability (Alpelisib + Tozasertib; first compound 1.265 µM): 0.0657 | relative viability (Alpelisib + Tozasertib; first compound 4 µM): 0.0666 | relative viability (Vemurafenib + Bortezomib; first compound 0.03162 µM): 1.08 | relative viability (Vemurafenib + Bortezomib; first compound 0.3162 µM): 0.603 | relative viability (Vemurafenib + Bortezomib; first compound 1 µM): 1.12
